Data set [1] is described as follows: Test 4: acute oral toxicity in mice. Details: species or system mice (male albino, strain ddY). As to conditions: mouse, in vivo, single dose, observed for a week. The method, then: Acute oral toxicity was determined by using male albino mice strain ddY, 5 weeks old. The test compounds were administered orally once and the LD50 values were calculated after observing for a week.

A further data set has as its system mice. As to conditions: heretofore known tickicide; cited from earlier work.

Consider one molecule from patent US4056631A, “Method of combatting ticks” (Showa Denko K.K., priority 1973, dated 1977).

As a reminder, the LD50 is the dose expected to kill half of the subjects tested. Low values mean greater toxicity, high ones lower toxicity.

For the molecule `CCOP(=S)(OCC)Oc1nc(Cl)c(Cl)cc1Cl` [Control Chemical III, O,O-diethyl O-(3,5,6-trichloro-2-pyridyl)phosphorothioate, reference compound], the LD50 at 168 h in data set [1] amounted to 70 mg/kg. In the data set with mice, the LD50 for mice is 70 mg/kg.
